The record followed here is ChEMBL document CHEMBL3792297, “Studies on phenothiazines: New microtubule-interacting compounds with phenothiazine A-ring as potent antineoplastic agents” (Bioorg Med Chem, 2016).

Holding throughout (format): functional
Assay [1] is described as follows: Growth inhibition of human OVCAR3 cells at 10 uM after 48 hrs by SRB assay relative to control. The settings on record: OVCAR-3, 48 h, read-out: GI.
The nature of assay [2]: Growth inhibition of human SW620 cells at 10 uM after 48 hrs by SRB assay relative to control. Particulars: SW-620, 48 h, read-out: GI.
A short description of assay [3]: Growth inhibition of human HCT15 cells at 10 uM after 48 hrs by SRB assay relative to control. Particulars: HCT-15, 48 h, read-out: GI.
Another assay deals with K562. The assay can be described thus: Growth inhibition of human K562 cells at 10 uM after 48 hrs by SRB assay relative to control. The settings on record: K562, 48 h, read-out: GI.
Another assay concerns NCI-H23. The assay is described as follows: Growth inhibition of human NCI-H23 cells at 10 uM after 48 hrs by SRB assay relative to control. The settings on record: NCI-H23, 48 h, read-out: GI.
The test system of another assay is Malme-3M. The assay is described as follows: Growth inhibition of human MALME-3M cells at 10 uM after 48 hrs by SRB assay relative to control. Particulars: read-out: GI.
Assay [4] is described as follows: Growth inhibition of human MOLT4 cells at 10 uM after 48 hrs by SRB assay relative to control. The settings on record: MOLT-4, 48 h, read-out: GI.
A short description of assay [5]: Growth inhibition of human BT549 cells at 10 uM after 48 hrs by SRB assay relative to control. Particulars: BT-549, 48 h, read-out: GI.
Assay [6] in a line: Growth inhibition of human SNB19 cells at 10 uM after 48 hrs by SRB assay relative to control. Particulars: SNB-19, 48 h, read-out: GI.
The next assay deals with ACHN. The assay is described as follows: Growth inhibition of human ACHN cells at 10 uM after 48 hrs by SRB assay relative to control. Particulars: read-out: GI.
Assay [7] can be described thus: Growth inhibition of human HOP92 cells at 10 uM after 48 hrs by SRB assay relative to control. Particulars: HOP-92, 48 h, read-out: GI.
Assay [8] in a line: Growth inhibition of human NCI-ADR-RES cells at 10 uM after 48 hrs by SRB assay relative to control. Particulars: read-out: GI.
For another assay, the system named is U-251. The assay can be described thus: Growth inhibition of human U251 cells at 10 uM after 48 hrs by SRB assay relative to control. Particulars: U-251, 48 h, read-out: GI.
Assay [9] in a line: Growth inhibition of human SF539 cells at 10 uM after 48 hrs by SRB assay relative to control. Particulars: SF-539, 48 h, read-out: GI.
Assay [10] can be described thus: Growth inhibition of human HCC2998 cells at 10 uM after 48 hrs by SRB assay relative to control. Particulars: HCC 2998, 48 h, read-out: GI.
For the next assay, the system named is A549. The assay can be described thus: Growth inhibition of human A549 cells at 10 uM after 48 hrs by SRB assay relative to control. Particulars: A549, 48 h, read-out: GI.
A short description of assay [11]: Growth inhibition of human OVCAR5 cells at 10 uM after 48 hrs by SRB assay relative to control. Particulars: OVCAR-5, 48 h, read-out: GI.
Assay [12] is described as follows: Growth inhibition of human HOP62 cells at 10 uM after 48 hrs by SRB assay relative to control. The settings on record: HOP-62, 48 h, read-out: GI.
A further assay has as its system SK-MEL-5. The assay can be described thus: Growth inhibition of human SK-MEL-5 cells at 10 uM after 48 hrs by SRB assay relative to control. Particulars: SK-MEL-5, 48 h, read-out: GI.
The next assay has as its system KM12. The assay is described as follows: Growth inhibition of human KM12 cells at 10 uM after 48 hrs by SRB assay relative to control. The settings on record: KM12, 48 h, read-out: GI.
A further assay has as its system T47D. The assay can be described thus: Growth inhibition of human T47D cells at 10 uM after 48 hrs by SRB assay relative to control. The settings on record: read-out: GI.
Another assay deals with M14. The assay is described as follows: Growth inhibition of human M14 cells at 10 uM after 48 hrs by SRB assay relative to control. Particulars: M14, 48 h, read-out: GI.

Take `O/N=C(/c1ccc2c(c1)Sc1ccccc1N2)c1c[nH]c2ccccc12`: the inhibition of growth at 10 µM in [1] is 96%; in assay [2], 74%; in assay [3], 58%; in the assay with K562, 87%; in the assay on NCI-H23, 24%; in the assay on Malme-3M, 45%. Moreover, the inhibition of growth at 10 µM in assay [4] was determined as 74%; in [5], 63%; in [6] it was 40%; in the assay on ACHN, 17%; in assay [7] it was 51%; in assay [8], 80%. Besides, the inhibition of growth at 10 µM with U-251 came to 31%; in assay [9] it was 29%; in assay [10], 5%; in the assay on A549 it was 48%; in assay [11], 31%; in assay [12] it was 42%. The inhibition of growth at 10 µM with SK-MEL-5 was found to be 40%; in the assay with KM12 it was 76%.
`O=C(c1ccc(F)c(Cl)c1)N1c2ccccc2Sc2ccccc21`: the inhibition of growth at 10 µM in [1] is 37%; in assay [2], 66%; in assay [3], 73%; in the assay with K562, 79%; with NCI-H23, 21%; in the assay on Malme-3M, 36%. Besides, the inhibition of growth at 10 µM came to 56% in assay [4]; 42% in [5]; 23% in assay [6]; 39% in the assay on T47D; 0% with ACHN; 63% in assay [7]. In addition, the inhibition of growth at 10 µM in assay [8] stood at 60%; in the assay on U-251, 61%; in [9] it was 38%; in [10], 38%; in the assay on A549, 34%; with M14, 47%. Besides, the inhibition of growth at 10 µM in assay [11] was found to be 13%; in [12] it was 23%; in the assay with SK-MEL-5, 66%; in the assay on KM12 it was 60%.
As for `O=C(c1ccc(Cl)cc1Cl)N1c2ccccc2Sc2ccccc21`, the inhibition of growth at 10 µM in assay [1] is 41%; in assay [2] it was 62%; in assay [3], 70%; in the assay on K562, 100%; in the assay with NCI-H23, 26%; in the assay with Malme-3M, 36%. Also, the inhibition of growth at 10 µM in [4] came to 74%; in [5] it was 45%; in assay [6], 43%; with T47D it was 33%; with ACHN it was 39%; in [7] it was 28%. In addition, the inhibition of growth at 10 µM in assay [8] stood at 39%; in the assay on U-251 it was 67%; in assay [9], 58%; in assay [10] it was 35%; in the assay with A549, 46%; in the assay with M14, 40%. For the same compound, the inhibition of growth at 10 µM in [11] is 29%; in assay [12], 35%; in the assay on SK-MEL-5, 65%; in the assay on KM12, 50%.
Consider `O=C(c1ccc(F)cc1F)N1c2ccccc2Sc2ccccc21`, for which the inhibition of growth at 10 µM in assay [1] amounted to 43%; in assay [2] it was 66%; in assay [3] it was 76%; with K562, 82%; in the assay on NCI-H23 it was 23%; in the assay on Malme-3M, 44%. Further, the inhibition of growth at 10 µM amounted to 69% in [4]; 43% in assay [5]; 37% in [6]; 35% with T47D; 20% in the assay on ACHN; 39% in [7]. The inhibition of growth at 10 µM amounted to 55% in assay [8]; 66% with U-251; 49% in [9]; 47% in assay [10]; 48% with A549; 35% with M14. For the same compound, the inhibition of growth at 10 µM came out at 21% in assay [11], 33% in assay [12], 68% in the assay with SK-MEL-5 and 62% with KM12.
For `COc1ccc(C(=O)c2ccc3c(c2)Sc2ccccc2N3C)cc1F`, the inhibition of growth at 10 µM in [1] was determined as 40%; in assay [2], 27%; in assay [3] it was 36%; in the assay with K562, 61%; in the assay with NCI-H23, 13%; in the assay with Malme-3M, 24%. In addition, the inhibition of growth at 10 µM amounted to 17% in assay [4]; 58% in assay [5]; 15% in assay [6]; 0% in the assay on ACHN; 17% in [7]; 32% in [8]. Besides, the inhibition of growth at 10 µM with U-251 is 18%; in [9], 19%; in assay [10], 5%; with A549, 44%; in assay [11], 12%; in assay [12] it was 17%. Further, the inhibition of growth at 10 µM in the assay with SK-MEL-5 is 13%; with KM12 it was 30%.
On to `COc1ccc(C(=O)c2ccc3c(c2)Sc2cc(C(=O)c4ccc(OC)c(F)c4)ccc2N3C)cc1F`, for which the inhibition of growth at 10 µM in assay [1] worked out at 16%; in assay [2] it was 0%; in [3], 0%; with K562 it was 6%; in the assay on NCI-H23 it was 4%; with Malme-3M, 5%. Besides, the inhibition of growth at 10 µM in [4] was determined as 0%; in [5], 34%; in [6] it was 6%; with ACHN it was 0%; in assay [7], 1%; in assay [8], 0%. Moreover, the inhibition of growth at 10 µM is 10% in the assay with U-251; 6% in assay [9]; 0% in assay [10]; 15% in the assay on A549; 0% in assay [11]; 6% in assay [12]. For the same compound, the inhibition of growth at 10 µM with SK-MEL-5 came to 4%; in the assay on KM12, 0%.
